The record followed here is the supplement of paper PMC10307832.

Common to all, as to experiment: relative viability (nuclei count vs DMSO), 5 days (fraction); higher = more cells survive
Compound in experiment [1]: C[C@]1(O)C[C@@H](c2nc(-c3ccc4ccc(-c5ccccc5)nc4c3)c3c(N)nccn32)C1 [Linsitinib] + CC(=O)c1c(C)c2cnc(Nc3ccc(N4CCNCC4)cn3)nc2n(C2CCCC2)c1=O [Palbociclib] (partner 0.5 µM)
In a few lines:
(§1)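 Lung cancer cell lines, seeded in 1536-well plates, were treated the following day by pin tool with a single drug or with five library-drug doses (not always all listed) in √10 steps on top of a fixed anchor-drug dose. Cells were fixed and nuclei stained in one step after 5 days, and nuclei were counted. Relative viability is the nuclei count for treated wells divided by that for vehicle wells, reported as medians of duplicate plates.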

Compound in experiment [2]: Cc1ccc(C(=O)N(CCCN)[C@@H](c2nc3cc(Cl)ccc3c(=O)n2Cc2ccccc2)C(C)C)cc1 [Ispinesib] + CCNC(=O)c1noc(-c2cc(C(C)C)c(O)cc2O)c1-c1ccc(CN2CCOCC2)cc1 [Luminespib] (partner 0.01 µM)
An outline of the steps:
as §1

Compound in experiment [3]: Cc1ccc(C(=O)N(CCCN)[C@@H](c2nc3cc(Cl)ccc3c(=O)n2Cc2ccccc2)C(C)C)cc1 [Ispinesib] + COc1cc2c(Oc3ccc(NC(=O)C4(C(=O)Nc5ccc(F)cc5)CC4)cc3F)ccnc2cc1OCCCN1CCOCC1 [Foretinib] (partner 0.25 µM)
An outline of the steps:
as §1

Compound in experiment [4]: Cc1ccc(C(=O)N(CCCN)[C@@H](c2nc3cc(Cl)ccc3c(=O)n2Cc2ccccc2)C(C)C)cc1 [Ispinesib] + Nc1ncn([C@H]2C[C@H](O)[C@@H](CO)O2)c(=O)n1 [Decitabine] (partner 2 µM)
In a few lines:
as §1

With NCI-H727, the relative viability worked out at 0.708 in experiment [1] (first compound 0.01 µM); 0.719 in experiment [1] (first compound 0.03162 µM); 0.63 in experiment [1] (first compound 0.1 µM); 0.553 in experiment [1] (first compound 0.3162 µM); 0.554 in experiment [1] (first compound 1 µM); 0.244 in experiment [2] (first compound 0.001 µM). Further, the relative viability in experiment [2] (first compound 0.003162 µM) is 0.284; in experiment [2] (first compound 0.01 µM), 0.349; in experiment [2] (first compound 0.03162 µM) it was 0.0037; in experiment [2] (first compound 0.1 µM), 0.308; in experiment [3] (first compound 0.001 µM), 0.944; in experiment [3] (first compound 0.003162 µM) it was 0.873. The relative viability in experiment [3] (first compound 0.01 µM) was found to be 0.933; in experiment [3] (first compound 0.03162 µM) it was 0.91; in experiment [3] (first compound 0.1 µM), 0.718; in experiment [4] (first compound 0.001 µM), 0.651; in experiment [4] (first compound 0.003162 µM), 0.864; in experiment [4] (first compound 0.03162 µM) it was 0.737. The relative viability in experiment [4] (first compound 0.1 µM) is 0.761.
For NCI-H838, the relative viability amounted to 0.23 in experiment [1] (first compound 0.01 µM); 0.207 in experiment [1] (first compound 0.03162 µM); 0.17 in experiment [1] (first compound 0.1 µM); 0.19 in experiment [1] (first compound 0.3162 µM); 0.162 in experiment [1] (first compound 1 µM); 0.302 in experiment [2] (first compound 0.001 µM). The relative viability came to 0.325 in experiment [2] (first compound 0.003162 µM); 0.278 in experiment [2] (first compound 0.01 µM); 0.322 in experiment [2] (first compound 0.03162 µM); 0.268 in experiment [2] (first compound 0.1 µM); 1.07 in experiment [3] (first compound 0.001 µM); 1.14 in experiment [3] (first compound 0.003162 µM). Further, the relative viability in experiment [3] (first compound 0.01 µM) was 1.16; in experiment [3] (first compound 0.03162 µM), 1; in experiment [3] (first compound 0.1 µM) it was 0.555; in experiment [4] (first compound 0.001 µM) it was 0.457; in experiment [4] (first compound 0.003162 µM), 0.45; in experiment [4] (first compound 0.01 µM), 0.46. For the same cell line, the relative viability in experiment [4] (first compound 0.03162 µM) was found to be 0.236; in experiment [4] (first compound 0.1 µM), 0.181.
Regarding NCI-H1355, the relative viability in experiment [1] (first compound 0.01 µM) is 0.384; in experiment [1] (first compound 0.03162 µM), 0.345; in experiment [1] (first compound 0.1 µM) it was 0.309; in experiment [1] (first compound 0.3162 µM), 0.308; in experiment [1] (first compound 1 µM), 0.269; in experiment [2] (first compound 0.001 µM), 0.702. The relative viability in experiment [2] (first compound 0.003162 µM) amounted to 0.729; in experiment [2] (first compound 0.01 µM), 0.881; in experiment [2] (first compound 0.03162 µM) it was 0.598; in experiment [2] (first compound 0.1 µM) it was 0.488; in experiment [3] (first compound 0.001 µM), 0.991; in experiment [3] (first compound 0.003162 µM), 1.01. For the same cell line, the relative viability in experiment [3] (first compound 0.01 µM) came out at 1.24; in experiment [3] (first compound 0.03162 µM) it was 0.95; in experiment [3] (first compound 0.1 µM), 0.444; in experiment [4] (first compound 0.001 µM), 0.364; in experiment [4] (first compound 0.003162 µM), 0.364; in experiment [4] (first compound 0.01 µM) it was 0.405. Further, the relative viability in experiment [4] (first compound 0.03162 µM) amounted to 0.33; in experiment [4] (first compound 0.1 µM), 0.307.
Regarding NCI-H1395, the relative viability in experiment [1] (first compound 0.01 µM) worked out at 0.653; in experiment [1] (first compound 0.1 µM), 0.713; in experiment [1] (first compound 0.3162 µM) it was 0.641; in experiment [1] (first compound 1 µM), 0.654; in experiment [2] (first compound 0.001 µM) it was 0.793; in experiment [2] (first compound 0.003162 µM), 0.769. The relative viability in experiment [2] (first compound 0.01 µM) was 0.817; in experiment [2] (first compound 0.03162 µM), 0.655; in experiment [2] (first compound 0.1 µM), 0.447; in experiment [3] (first compound 0.001 µM), 1.06; in experiment [3] (first compound 0.003162 µM) it was 0.998; in experiment [3] (first compound 0.01 µM) it was 1.03. Moreover, the relative viability worked out at 0.866 in experiment [3] (first compound 0.03162 µM); 0.356 in experiment [3] (first compound 0.1 µM); 0.734 in experiment [4] (first compound 0.001 µM); 0.746 in experiment [4] (first compound 0.003162 µM); 0.577 in experiment [4] (first compound 0.01 µM); 0.467 in experiment [4] (first compound 0.03162 µM). Moreover, the relative viability in experiment [4] (first compound 0.1 µM) came to 0.412.
